{"source": "patent US9434687B2", "about": "“Detection of synthetic cannabinoids” (priority 2011, dated 2016)", "assay_type_in_all_cases": "binding, sheep", "key": {"[1]": {"tested_on": "IgG fraction of antiserum raised to Immunogen I", "method_in_brief": "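Plates were coated with the IgG fraction of sheep antiserum raised to Immunogen I and incubated with standards (JWH-018, 0-40 ng/ml) plus hapten-HRP conjugate for 1 h at 25° C. Detection used TMB, read at 450 nm. IC50 was taken from a 4-parameter fit as the concentration giving half the zero-standard OD.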"}, "[2]": {"tested_on": "IgG fraction of antiserum raised to Immunogen IV"}, "[3]": {"tested_on": "IgG fraction of antiserum raised to Immunogen VIII"}, "[4]": {"tested_on": "IgG fraction of antiserum raised to Immunogen VII", "conditions": "Antibody to Immunogen VII; cross-reactants at 100 ng/ml; 1000 ng/ml; standard JWH-015"}, "[5]": {"conditions": "Antibody to Immunogen I, cross-reactants at 100 ng/ml, 1000 ng/ml, standard JWH-018"}, "[6]": {"conditions": "Antibody to Immunogen IV, cross-reactants at 100 ng/ml, 1000 ng/ml, standard JWH-018"}, "[7]": {"conditions": "Antibody to Immunogen VIII, cross-reactants at 100 ng/ml, 1000 ng/ml, standard JWH-018"}}, "note": "Where two headings read alike, the source gives them in different places.", "data": [{"smiles": "CCCCCn1cc(C(=O)c2cccc3ccccc23)c2c(O)cccc21", "note": "[4-OH JWH-018, JWH-018 4-hydroxyindole metabolite]", "values": [{"measurement": "% B/B0", "setting": "[1]; [5]", "value": 46.39, "unit": "%"}, {"measurement": "% B/B0", "setting": "[2]; [6]", "value": 20.42, "unit": "%"}, {"measurement": "% B/B0", "setting": "[3]; [7]", "value": 16.72, "unit": "%"}, {"measurement": "% B/B0", "setting": "[4]", "value": 89.96, "unit": "%"}]}, {"smiles": "CCCCCn1cc(C(=O)c2cccc3ccccc23)c2cc(O)ccc21", "note": "[5-OH JWH-018, JWH-018 5-hydroxyindole metabolite]", "values": [{"measurement": "% B/B0", "setting": "[1]; [5]", "value": 11.79, "unit": "%"}, {"measurement": "% B/B0", "setting": "[2]; [6]", "value": 78.56, "unit": "%"}, {"measurement": "% B/B0", "setting": "[3]; [7]", "value": 87.67, "unit": "%"}, {"measurement": "% B/B0", "setting": "[4]", "value": 85.76, "unit": "%"}]}, {"smiles": "CCCCCn1cc(C(=O)c2cccc3ccccc23)c2ccc(O)cc21", "note": "[6-OH JWH-018, JWH-018 6-hydroxyindole metabolite]", "values": [{"measurement": "% B/B0", "setting": "[1]; [5]", "value": 8.07, "unit": "%"}, {"measurement": "% B/B0", "setting": "[2]; [6]", "value": 51.00, "unit": "%"}, {"measurement": "% B/B0", "setting": "[3]; [7]", "value": 89.86, "unit": "%"}, {"measurement": "% B/B0", "setting": "[4]", "value": 68.17, "unit": "%"}]}, {"smiles": "O=C(c1cccc2ccccc12)c1cn(CCCCCF)c2ccccc12", "note": "[AM-2201, 1-(5-Fluoropentyl)indol-3-yl (1-naphthyl) methanone]", "values": [{"measurement": "% B/B0", "setting": "[1]; [5]", "value": 3.72, "unit": "%"}, {"measurement": "% B/B0", "setting": "[2]; [6]", "value": 6.20, "unit": "%"}, {"measurement": "% B/B0", "setting": "[3]; [7]", "value": 16.74, "unit": "%"}, {"measurement": "% B/B0", "setting": "[4]", "value": 55.28, "unit": "%"}]}, {"smiles": "O=C(c1cccc2ccccc12)c1cn(CCCCCO)c2ccccc12", "note": "[JWH-018 N-(5-hydroxypentyl) metabolite]", "values": [{"measurement": "% B/B0", "setting": "[1]; [5]", "value": 3.50, "unit": "%"}, {"measurement": "% B/B0", "setting": "[2]; [6]", "value": 78.42, "unit": "%"}, {"measurement": "% B/B0", "setting": "[3]; [7]", "value": 57.37, "unit": "%"}, {"measurement": "% B/B0", "setting": "[4]", "value": 53.32, "unit": "%"}]}, {"smiles": "O=C(O)CCCCn1cc(C(=O)c2cccc3ccccc23)c2ccccc21", "note": "[JWH-018 N-pentanoic acid metabolite]", "values": [{"measurement": "% B/B0", "setting": "[1]; [5]", "value": 4.51, "unit": "%"}, {"measurement": "% B/B0", "setting": "[2]; [6]", "value": 99.89, "unit": "%"}, {"measurement": "% B/B0", "setting": "[3]; [7]", "value": 100.31, "unit": "%"}, {"measurement": "% B/B0", "setting": "[4]", "value": 53.02, "unit": "%"}]}, {"smiles": "CCCCCn1cc(C(=O)c2cccc3ccccc23)c2ccccc21", "note": "[JWH-018]", "values": [{"measurement": "% B/B0", "setting": "[1]; [5]", "value": 5.19, "unit": "%"}, {"measurement": "% B/B0", "setting": "[1]; JWH-018 0.625 ng/ml", "value": 77, "unit": "%"}, {"measurement": "% B/B0", "setting": "[1]; JWH-018 1.25 ng/ml", "value": 62, "unit": "%"}, {"measurement": "% B/B0", "setting": "[1]; JWH-018 2.5 ng/ml", "value": 44, "unit": "%"}, {"measurement": "% B/B0", "setting": "[1]; JWH-018 5 ng/ml", "value": 31, "unit": "%"}, {"measurement": "% B/B0", "setting": "[1]; JWH-018 10 ng/ml", "value": 20, "unit": "%"}, {"measurement": "% B/B0", "setting": "[1]; JWH-018 20 ng/ml", "value": 14, "unit": "%"}, {"measurement": "% B/B0", "setting": "[1]; JWH-018 40 ng/ml", "value": 9, "unit": "%"}, {"measurement": "IC50", "setting": "[1]; Table 7 standard curve, standard concentration which produces 50% B/B0", "value": 2.016, "unit": "ng/mL"}, {"measurement": "% B/B0", "setting": "[2]; [6]", "value": 6.80, "unit": "%"}, {"measurement": "% B/B0", "setting": "[2]; JWH-018 1.25 ng/ml", "value": 87, "unit": "%"}, {"measurement": "% B/B0", "setting": "[2]; JWH-018 2.5 ng/ml", "value": 68, "unit": "%"}, {"measurement": "% B/B0", "setting": "[2]; JWH-018 5 ng/ml", "value": 42, "unit": "%"}, {"measurement": "% B/B0", "setting": "[2]; JWH-018 10 ng/ml", "value": 26, "unit": "%"}, {"measurement": "% B/B0", "setting": "[2]; JWH-018 20 ng/ml", "value": 16, "unit": "%"}, {"measurement": "% B/B0", "setting": "[2]; JWH-018 40 ng/ml", "value": 10, "unit": "%"}, {"measurement": "% B/B0", "setting": "[2]; JWH-018 80 ng/ml", "value": 7, "unit": "%"}, {"measurement": "IC50", "setting": "[2]; Table 8 standard curve, standard concentration which produces 50% B/B0", "value": 4.133, "unit": "ng/mL"}, {"measurement": "% B/B0", "setting": "[3]; [7]", "value": 17.66, "unit": "%"}, {"measurement": "% B/B0", "setting": "[3]; JWH-018 1 ng/ml", "value": 79, "unit": "%"}, {"measurement": "% B/B0", "setting": "[3]; JWH-018 3 ng/ml", "value": 63, "unit": "%"}, {"measurement": "% B/B0", "setting": "[3]; JWH-018 5 ng/ml", "value": 51, "unit": "%"}, {"measurement": "% B/B0", "setting": "[3]; JWH-018 10 ng/ml", "value": 40, "unit": "%"}, {"measurement": "% B/B0", "setting": "[3]; JWH-018 20 ng/ml", "value": 29, "unit": "%"}, {"measurement": "% B/B0", "setting": "[3]; JWH-018 40 ng/ml", "value": 22, "unit": "%"}, {"measurement": "% B/B0", "setting": "[3]; JWH-018 80 ng/ml", "value": 16, "unit": "%"}, {"measurement": "IC50", "setting": "[3]; Table 9 standard curve, standard concentration which produces 50% B/B0", "value": 5.230, "unit": "ng/mL"}, {"measurement": "% B/B0", "setting": "[4]", "value": 67.66, "unit": "%"}]}, {"smiles": "CCCCn1cc(C(=O)c2cccc3ccccc23)c2ccccc21", "note": "[JWH-073]", "values": [{"measurement": "% B/B0", "setting": "[1]; [5]", "value": 3.56, "unit": "%"}, {"measurement": "% B/B0", "setting": "[2]; [6]", "value": 13.63, "unit": "%"}, {"measurement": "% B/B0", "setting": "[3]; [7]", "value": 25.50, "unit": "%"}, {"measurement": "% B/B0", "setting": "[4]", "value": 58.34, "unit": "%"}]}, {"smiles": "O=C(c1cccc2ccccc12)c1cn(CCN2CCOCC2)c2ccccc12", "note": "[JWH-200]", "values": [{"measurement": "% B/B0", "setting": "[1]; [5]", "value": 3.51, "unit": "%"}, {"measurement": "% B/B0", "setting": "[2]; [6]", "value": 77.08, "unit": "%"}, {"measurement": "% B/B0", "setting": "[3]; [7]", "value": 98.81, "unit": "%"}, {"measurement": "% B/B0", "setting": "[4]", "value": 42.85, "unit": "%"}]}, {"smiles": "CCCCCn1cc(C(=O)c2ccc(Cl)c3ccccc23)c2ccccc21", "note": "[JWH-398]", "values": [{"measurement": "% B/B0", "setting": "[1]; [5]", "value": 60.31, "unit": "%"}, {"measurement": "% B/B0", "setting": "[2]; [6]", "value": 6.00, "unit": "%"}, {"measurement": "% B/B0", "setting": "[3]; [7]", "value": 18.66, "unit": "%"}, {"measurement": "% B/B0", "setting": "[4]", "value": 94.47, "unit": "%"}]}, {"smiles": "O=C(c1cccc2ccccc12)c1c[nH]c2ccccc12", "note": "[N-desalkyl JWH-018, 3-(1-naphthoyl)-1H-Indole]", "values": [{"measurement": "% B/B0", "setting": "[1]; [5]", "value": 15.63, "unit": "%"}, {"measurement": "% B/B0", "setting": "[2]; [6]", "value": 95.55, "unit": "%"}, {"measurement": "% B/B0", "setting": "[3]; [7]", "value": 90.49, "unit": "%"}, {"measurement": "% B/B0", "setting": "[4]", "value": 80.08, "unit": "%"}]}]}
